The compounds below were run against T1, MreCA (Malassezia restricta, UniProt A0A3G2S4B9) (assay: stopped-flow CO2 hydrase assay). Settings: not given.
T1 construct: gene can; recombinant from synthetic gene in pET100D-Topo, E. coli BL21(DE3) codon plus; N-terminal His6-tag fusion, 27 kDa on SDS-PAGE; no tag cleavage told
T1 sequence (A0A3G2S4B9 1-238): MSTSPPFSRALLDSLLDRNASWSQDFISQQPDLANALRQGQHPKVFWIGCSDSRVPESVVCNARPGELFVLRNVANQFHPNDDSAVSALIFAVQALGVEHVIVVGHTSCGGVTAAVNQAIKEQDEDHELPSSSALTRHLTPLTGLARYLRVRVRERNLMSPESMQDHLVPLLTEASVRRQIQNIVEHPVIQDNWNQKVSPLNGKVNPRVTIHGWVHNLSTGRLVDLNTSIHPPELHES
Format: biochemical
In the case of `NCCc1ccc(S(N)(=O)=O)cc1` [compound 6, 6], the Ki is reported as over 10 µM.

Same assay, conditions: read-out: MreCA
`CCN[C@H]1CN(CCCOC)S(=O)(=O)c2sc(S(N)(=O)=O)cc21` [BRZ] was tested, and the Ki was 0.7 µM.
`NS(=O)(=O)c1nnc(NS(=O)(=O)c2ccccc2)s1` [BZA] gave a Ki of 7.15 µM.
For `Cc1ccc(-c2cc(C(F)(F)F)nn2-c2ccc(S(N)(=O)=O)cc2)cc1` [CLX], the Ki was 1.4 µM.
`NS(=O)(=O)c1cc(Cl)c(Cl)c(S(N)(=O)=O)c1` [DCP] was tested, and the Ki was 3.06 µM.
`NC(N)=Nc1nc(CSCCC(N)=NS(N)(=O)=O)cs1` [FAM] gave a Ki of over 10 µM.
`NS(=O)(=O)c1cc2c(cc1Cl)NCNS2(=O)=O` [HCT] was tested, and the Ki was 8.5 µM.
`NS(=O)(=O)c1ccc(S(=O)(=O)Nc2cccc3c(Cl)c[nH]c23)cc1` [IND] gave a Ki of 0.87 µM.
Work on `CC(=O)N=c1sc(S(N)(=O)=O)nn1C` [MZA] yielded a Ki of 3.9 µM.
In the case of `O=C1NS(=O)(=O)c2ccccc21` [SAC], the Ki is reported as 6.2 µM.
For `CCN1CCCC1CNC(=O)c1cc(S(N)(=O)=O)ccc1OC` (stereo not drawn) [SLP], the Ki was 4.85 µM.
In the case of `NS(=O)(=O)c1ccc(N2CCCCS2(=O)=O)cc1` [SLT], the Ki is reported as 0.67 µM.
For `CC1(C)O[C@@H]2[C@@H](CO[C@@]3(COS(N)(=O)=O)OC(C)(C)O[C@@H]23)O1` [TPM], the Ki was 3.83 µM.
For `Cc1onc(-c2ccccc2)c1-c1ccc(S(N)(=O)=O)cc1` [VLX], the Ki was 0.77 µM.
In the case of `NS(=O)(=O)Cc1noc2ccccc12` [ZNS], the Ki is reported as over 10 µM.
For `Nc1ccc(S(N)(=O)=O)cc1` [compound 2, 2], the Ki was 4.62 µM.
`NS(=O)(=O)c1cccc(S(N)(=O)=O)c1` [compound 3, 3] was tested, and the Ki was over 10 µM.
`Cc1ccc(S(N)(=O)=O)cc1` [compound 4, 4] gave a Ki of 4.04 µM.
`NCc1ccc(S(N)(=O)=O)cc1` [compound 5, 5] gave a Ki of over 10 µM.
For `Nc1ccc(S(N)(=O)=O)cc1F` [compound 7, 7], the Ki was 4.59 µM.
`Nc1ccc(S(N)(=O)=O)cc1Cl` [compound 8, 8] was tested, and the Ki was over 10 µM.
Work on `Nc1ccc(S(N)(=O)=O)cc1Br` [compound 9, 9] yielded a Ki of over 10 µM.
For `NS(=O)(=O)c1cc(Cl)cc(Cl)c1O` [compound 10, 10], the Ki was over 10 µM.
`Nc1cc(C(F)(F)F)c(S(N)(=O)=O)cc1S(N)(=O)=O` [compound 11, 11] gave a Ki of 6.76 µM.
Work on `Nc1cc(Cl)c(S(N)(=O)=O)cc1S(N)(=O)=O` [compound 12, 12] yielded a Ki of over 10 µM.
`Nc1nnc(S(N)(=O)=O)s1` [compound 13, 13] was tested, and the Ki was over 10 µM.
`Cn1nc(S(N)(=O)=O)sc1=N` [compound 14, 14] was tested, and the Ki was over 10 µM.
Work on `NS(=O)(=O)c1ccc(O)cc1` [compound 15, 15] yielded a Ki of over 10 µM.
`NS(=O)(=O)c1ccc(CO)cc1` [compound 16, 16] gave a Ki of 6.51 µM.
For `NS(=O)(=O)c1ccc(CCO)cc1` [compound 17, 17], the Ki was over 10 µM.
For `NS(=O)(=O)c1ccc(C(=O)O)cc1` [compound 18, 18], the Ki was over 10 µM.
`Nc1nccc(Nc2ccc(S(N)(=O)=O)cc2)n1` [compound 19, 19] gave a Ki of 7.79 µM.
In the case of `Nc1ccc(S(=O)(=O)Nc2nnc(S(N)(=O)=O)s2)cc1` [compound 20, 20], the Ki is reported as 0.91 µM.
Work on `Nc1ccc(S(=O)(=O)Nc2ccc(S(N)(=O)=O)cc2)cc1` [compound 22, 22] yielded a Ki of 3.74 µM.
`Nc1ccc(S(=O)(=O)NCc2ccc(S(N)(=O)=O)cc2)cc1` [compound 23, 23] showed a Ki of over 10 µM.
Compound `Nc1ccc(S(=O)(=O)NCCc2ccc(S(N)(=O)=O)cc2)cc1` [compound 24, 24] has a Ki of over 10 µM.

Reference: publication PMC7023381, “Sulfonamide Inhibition Profile of the β-Carbonic Anhydrase from Malassezia restricta, An Opportunistic Pathogen Triggering Scalp Conditions” (Metabolites, 2020)
